According to patent US20220281821A1, “INDAZOLE COMPOUNDS AND THEIR PHARMACEUTICAL COMPOSITIONS” (Jinan University, priority 2019, published 2022):

What was measured:
BaF3-ETV6-NTRK3 = target: T1, BaF3-ETV6-NTRK3 (Homo sapiens, UniProt Q16288); test: Cell proliferation inhibition (CCK-8), BaF3-ETV6-NTRK3 stable strain; assay type: cell-based, mouse; conditions: BaF3-ETV6-NTRK3, 72 hours
T1 construct: fused on or other part: P41212 (Transcription factor ETV6)
Outline: (§1)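 Ba/F3 cells stably electroporated with ETV6-NTRK3, CD74-NTRK1 or ETV6-NTRK2, selected with G418 and grown without IL3, then cloned by limiting dilution.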

BaF3-CD74-NTRK1 = target: T2, BaF3-CD74-NTRK1 (Homo sapiens, UniProt P04629); test: Cell proliferation inhibition (CCK-8), BaF3-CD74-NTRK1 stable strain; assay type: cell-based, mouse; conditions: BaF3-CD74-NTRK1, 72 hours
T2 construct: fused on or other part: P04233 (HLA class II histocompatibility antigen gamma chain)
Outline: as §1

TRKC = target: T3, TRKC (Homo sapiens, UniProt Q16288); test: Z′-LYTE kinase activity assay, TRKC; assay type: biochemical; conditions: ATP 50 uM
T3 construct: purchased life technologies PV3617
Outline: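 Recombinant TRK kinase tested in a Z′-LYTE FRET assay with 2 μM Tyr 01 peptide substrate in 50 mM HEPES pH 7.5, 10 mM MgCl2, 1 mM EGTA, 0.01% BRIJ-35. IC50 obtained by curve fitting.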

BaF3-ETV6-NTRK2 = target: T4, BaF3-ETV6-NTRK2 (Homo sapiens, UniProt Q16620); test: Cell proliferation inhibition (CCK-8), BaF3-ETV6-NTRK2 stable strain; assay type: cell-based, mouse; conditions: BaF3-ETV6-NTRK2, 72 hours
T4 construct: fused on or other part: P41212 (Transcription factor ETV6)
Outline: as §1

TRKA = target: T5, TRKA (Homo sapiens, UniProt P04629); test: Z′-LYTE kinase activity assay, TRKA; assay type: biochemical; conditions: ATP 400 uM
T5 construct: purchased life technologies PV3144
Outline: (§2)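 IC50 values were fitted to inhibition calculated from the emission-ratio-based phosphorylation ratio relative to negative control, across a compound concentration gradient.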

TRKB = target: T6, TRKB (Homo sapiens, UniProt Q16620); test: Z′-LYTE kinase activity assay, TRKB; assay type: biochemical; conditions: ATP 25 uM
T6 construct: purchased life technologies PV3616
Outline: as §2

[1] = Pharmacokinetic evaluation in SD rats; assay type: in vivo
Protocol: Pharmacokinetics and oral bioavailability were tested in SD rats. According to the solubility of the drug, a single dose was administered orally, intravenously or by intraperitoneal injection. Animal blood samples were collected at different time points (0, 0.5, 1, 2, 4, 6, 8, and 24 hours), anticoagulated with heparin, and centrifuged to take the supernatant. Blood samples were analyzed by HPLC-MS. DAS2.1 was used for data analysis to detect half-life (T1/2), maximum blood concentration (Cmax), time to peak (Tmax), area under the drug-time curve (AUC), and bioavailability (BA) and other pharmacokinetic data.

[2] = Rat hepatocyte stability experiment; assay type: in vitro ADME; conditions: for Residual percentage (%) 0 min / Residual percentage (%) 5 min / Residual percentage (%) 15 min / Residual percentage (%) 30 min / Residual percentage (%) 60 min / Residual percentage (%) 120 min: rat hepatocytes, average value; for half-life at 1 μM: rat, rat hepatocytes (suspension)
Protocol: In William medium E, dilute the 37° C. rat hepatocyte suspension to an appropriate density (viable cell density=2×10^6 cells/mL). In addition, a 2× quantification solution (the concentration of the test compound was 2 μM) was additionally prepared in William's medium E. The hepatocyte solution and 2× quantification solution were preheated in a water bath of 37° C. 40 µL of the preheated hepatocyte solution (2×10^6 cells/mL) was added into the designated wells for 5, 15, 30, 60, and 120 min, and add 40 µL of the preheated 2× quantification solution and start timing. An assay plate was placed in a 37° C., 5% CO2 incubator with shaking at 110 rpm. At 5, 15, 30, 60, and 120 minutes, 240 μL of ACN containing IS was added to each well. The plate was then sealed and stored in a −35° C. freezer. After collecting at all time points, the plate was shaken for 2 minutes and then centrifuging was performed for 15 minutes at 6000 rmp. 100 μL of supernatant from each well was transferred to a 96-well sample plate containing 100 μL of water for LC/MS analysis, determination of compound concentrations, calculation of rate constants and half-lives.

TRKs (TRK1, TRK2, TRK3) = test: Kinase activity on TRKs, summary statements; assay type: biochemical; conditions: summary statement
Description: Kinase activity assay: Z′-LYTE™ technology (detection by fluorescence, enzyme-conjugated format, based on the difference in sensitivity of phosphorylated and non-phosphorylated peptides to proteolytic cleavage) was applied, and using the principle of fluorescence resonance energy transfer (FRET), a Z′-LYTE™ FRET peptide substrate (Z′-LYTE™ Tyrosine 1 Peptide Substrate, Invitrogen, PV3190), and a secondary reaction were used to detect the inhibitory activity of the compounds on TRKs (TRK1, TRK2, TRK3) (life technologies, PV3144, PV3616, PV3617).
Enzymatic reaction: In a 384-well plate, 5 μL of an enzyme-substrate system (50 mM HEPES pH 7.5, 0.01% BRIJ-35, 10 mM MgCl2, 1 mM EGTA, 2 μM Tyr 01 Peptide Substrate) was added and 5 nL of compound (concentration gradient) was transferred thereto by using the echo520 ultramicro liquid pipetting system. After shaking for 10-20 min at room temperature, 200 nL, 12.5 nL and 25 nL of ATP (final concentrations are 400 uM, 25 uM and 50 uM, respectively) were transferred by using the echo520 ultramicro liquid pipetting system. After shaking and mixing, centrifuging was performed. A reaction was carried out at 30° C. in the dark for 1.5 hours.
Assay reaction: 2.54 of Development Solution (1:128 dilution) was added in each well, and incubated at 37° C. in the dark for 1 hour, and then 5 μL of Stop Reagent was added.
Plate reading: fluorescence signals were detected using a Perkin Elmer EnVision Multimode Plate Reader (excitation at 400 nm, and emission at 460 nm, and 535 nm).
Calculation: the inhibition rate of each well was calculated by the fully active well and control signal wells. The data were analyzed as follows:
Phosphorylation ratio=1−{(emission ratio×F100%−C100%)/[C0%−C100%+emission ratio×(F100%−F0%)]}×100;
Inhibition rate=100×(1−compound phosphorylation ratio/negative control phosphorylation ratio).
IC50 values were calculated by using GraphPad Prism 5.0 software.

T5 sequence (P04629 440-796 limits assumed): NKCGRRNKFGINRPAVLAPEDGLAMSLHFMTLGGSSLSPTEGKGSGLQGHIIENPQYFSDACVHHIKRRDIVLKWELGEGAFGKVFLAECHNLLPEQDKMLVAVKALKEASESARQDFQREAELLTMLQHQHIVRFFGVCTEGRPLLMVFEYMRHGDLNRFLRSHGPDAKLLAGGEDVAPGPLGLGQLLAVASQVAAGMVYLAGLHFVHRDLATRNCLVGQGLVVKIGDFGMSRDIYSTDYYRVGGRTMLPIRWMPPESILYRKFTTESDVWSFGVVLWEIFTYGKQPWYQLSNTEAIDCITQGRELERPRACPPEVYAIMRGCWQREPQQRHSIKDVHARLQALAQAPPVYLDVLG
T3 sequence (Q16288 32-839): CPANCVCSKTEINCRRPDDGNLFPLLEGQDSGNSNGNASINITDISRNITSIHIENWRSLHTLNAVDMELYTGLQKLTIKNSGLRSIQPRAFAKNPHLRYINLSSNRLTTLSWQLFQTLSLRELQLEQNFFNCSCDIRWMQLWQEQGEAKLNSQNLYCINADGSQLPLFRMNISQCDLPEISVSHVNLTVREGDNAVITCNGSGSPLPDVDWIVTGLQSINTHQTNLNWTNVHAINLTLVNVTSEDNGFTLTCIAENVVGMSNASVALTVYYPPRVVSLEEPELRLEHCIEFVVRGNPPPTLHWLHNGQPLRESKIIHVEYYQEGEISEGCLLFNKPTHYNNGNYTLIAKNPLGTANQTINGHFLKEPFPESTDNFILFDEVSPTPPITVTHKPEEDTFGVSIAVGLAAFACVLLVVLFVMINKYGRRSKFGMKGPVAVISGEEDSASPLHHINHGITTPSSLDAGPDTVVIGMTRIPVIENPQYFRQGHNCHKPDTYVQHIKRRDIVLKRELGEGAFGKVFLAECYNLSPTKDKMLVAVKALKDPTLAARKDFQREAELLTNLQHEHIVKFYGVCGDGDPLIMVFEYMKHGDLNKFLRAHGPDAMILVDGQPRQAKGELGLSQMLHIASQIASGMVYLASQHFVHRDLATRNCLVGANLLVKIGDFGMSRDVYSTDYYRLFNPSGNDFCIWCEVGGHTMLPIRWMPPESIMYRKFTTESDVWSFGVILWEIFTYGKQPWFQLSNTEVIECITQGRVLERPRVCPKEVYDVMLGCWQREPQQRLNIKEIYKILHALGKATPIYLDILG
T1 sequence (Q16288 whole entry, the tested form may be a part): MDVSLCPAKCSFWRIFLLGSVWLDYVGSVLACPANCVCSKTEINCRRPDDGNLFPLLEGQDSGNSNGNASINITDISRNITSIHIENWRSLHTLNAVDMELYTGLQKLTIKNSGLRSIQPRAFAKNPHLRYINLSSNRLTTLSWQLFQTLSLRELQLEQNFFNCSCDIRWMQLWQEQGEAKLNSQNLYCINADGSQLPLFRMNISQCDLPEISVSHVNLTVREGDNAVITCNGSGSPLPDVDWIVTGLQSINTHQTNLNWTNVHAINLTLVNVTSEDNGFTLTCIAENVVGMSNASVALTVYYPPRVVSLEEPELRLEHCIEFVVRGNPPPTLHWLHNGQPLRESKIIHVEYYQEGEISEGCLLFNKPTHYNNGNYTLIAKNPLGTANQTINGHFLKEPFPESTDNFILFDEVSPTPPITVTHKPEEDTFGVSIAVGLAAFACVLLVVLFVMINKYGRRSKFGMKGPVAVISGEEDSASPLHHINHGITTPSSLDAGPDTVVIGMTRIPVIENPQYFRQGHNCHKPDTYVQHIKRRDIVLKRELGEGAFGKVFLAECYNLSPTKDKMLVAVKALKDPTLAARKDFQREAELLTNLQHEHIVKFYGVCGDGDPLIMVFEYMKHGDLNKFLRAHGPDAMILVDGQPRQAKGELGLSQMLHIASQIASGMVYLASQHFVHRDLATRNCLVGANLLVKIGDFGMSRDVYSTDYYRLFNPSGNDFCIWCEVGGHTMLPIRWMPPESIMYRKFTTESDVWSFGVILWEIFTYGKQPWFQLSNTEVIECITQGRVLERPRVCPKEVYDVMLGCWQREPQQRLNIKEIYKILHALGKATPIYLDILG
T6 sequence (Q16620 32-822): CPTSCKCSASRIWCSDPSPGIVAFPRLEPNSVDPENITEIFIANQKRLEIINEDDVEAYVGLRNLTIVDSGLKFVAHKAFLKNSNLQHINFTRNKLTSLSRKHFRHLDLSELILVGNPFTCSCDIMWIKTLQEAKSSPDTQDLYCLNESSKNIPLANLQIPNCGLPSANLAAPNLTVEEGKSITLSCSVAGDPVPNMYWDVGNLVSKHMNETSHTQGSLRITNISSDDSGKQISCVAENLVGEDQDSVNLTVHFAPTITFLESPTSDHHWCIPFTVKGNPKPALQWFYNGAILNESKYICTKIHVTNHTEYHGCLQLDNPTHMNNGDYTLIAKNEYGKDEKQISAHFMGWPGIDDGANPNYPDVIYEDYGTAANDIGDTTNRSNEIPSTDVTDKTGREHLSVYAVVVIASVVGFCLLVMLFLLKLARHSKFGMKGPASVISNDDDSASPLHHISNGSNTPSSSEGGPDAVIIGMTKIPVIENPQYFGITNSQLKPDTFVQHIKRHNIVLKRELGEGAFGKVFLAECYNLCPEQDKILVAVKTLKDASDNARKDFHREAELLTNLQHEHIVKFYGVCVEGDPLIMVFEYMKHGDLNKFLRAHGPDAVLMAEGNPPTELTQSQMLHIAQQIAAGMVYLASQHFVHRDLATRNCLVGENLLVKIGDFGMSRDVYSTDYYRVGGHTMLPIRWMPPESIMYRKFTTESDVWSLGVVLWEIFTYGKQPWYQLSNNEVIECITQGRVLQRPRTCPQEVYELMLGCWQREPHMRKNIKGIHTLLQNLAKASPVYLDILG
T2 sequence (P04629 510-796 limits assumed): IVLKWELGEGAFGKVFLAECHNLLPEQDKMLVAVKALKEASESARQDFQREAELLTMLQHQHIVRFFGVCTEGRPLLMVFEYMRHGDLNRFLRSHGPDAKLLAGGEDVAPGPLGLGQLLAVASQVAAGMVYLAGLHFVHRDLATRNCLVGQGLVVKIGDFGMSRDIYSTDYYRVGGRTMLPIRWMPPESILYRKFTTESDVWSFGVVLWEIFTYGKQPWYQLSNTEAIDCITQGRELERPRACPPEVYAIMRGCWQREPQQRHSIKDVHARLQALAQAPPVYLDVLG
T4 sequence (Q16620 538-822 limits assumed): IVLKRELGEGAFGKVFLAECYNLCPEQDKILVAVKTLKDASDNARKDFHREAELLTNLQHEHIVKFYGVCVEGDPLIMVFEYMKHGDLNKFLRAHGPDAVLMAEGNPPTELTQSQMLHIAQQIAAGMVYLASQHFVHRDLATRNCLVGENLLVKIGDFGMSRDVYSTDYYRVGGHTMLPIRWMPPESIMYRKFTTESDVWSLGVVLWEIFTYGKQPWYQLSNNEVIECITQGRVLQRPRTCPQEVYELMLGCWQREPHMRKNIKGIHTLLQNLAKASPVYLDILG

SMILES | IC50 (BaF3-ETV6-NTRK3) [nM] | IC50 (BaF3-CD74-NTRK1) [nM] | IC50 (TRKC) [nM] | IC50 (BaF3-ETV6-NTRK2) [nM] | IC50 (TRKA) [nM] | IC50 (TRKB) [nM] | further results
Fc1cc(F)cc(CCc2ccc3[nH]nc(/C=C/c4ccccn4)c3c2)c1 [DYX-180, (E)-5-(3,5-difluorophenethyl)-3-(2-(pyridin-2-yl)vinyl)-1H-indazole] | 415 | 498 | 4.7 | 694 | 3.9 | 9.9 | –
Fc1cc(F)cc(CNc2ccc3[nH]nc(/C=C/c4ccccn4)c3c2)c1 [DYX-185, (E)-N-(3,5-difluorobenzyl)-3-(2-(pyridin-2-yl)vinyl)-1H-indazol-5-amine] | 23.7 | 32.6 | 1.9 | 43.9 | 1.7 | 10 | –
CN(Cc1cc(F)cc(F)c1)c1ccc2[nH]nc(/C=C/c3ccccn3)c2c1 [DYX-187, (E)-N-(3,5-difluorobenzyl)-N-methyl-3-(2-(pyridin-2-yl)vinyl)-1H-indazol-5-amine] | 278 | 172 | 6.2 | 625 | 18.7 | 20.3 | –
Fc1cc(F)cc(NCc2ccc3[nH]nc(/C=C/c4ccccn4)c3c2)c1 [DYX-191, (E)-3,5-difluoro-N-((3-(2-(pyridin-2-yl)vinyl)-1H-indazol-5-yl)methyl)aniline] | 503 | 264 | 16.6 | 667 | 9.1 | 37.1 | –
CN(Cc1ccc2[nH]nc(/C=C/c3ccccn3)c2c1)c1cc(F)cc(F)c1 [DYX-193, (E)-3,5-difluoro-N-methyl-N-((3-(2-(pyridin-2-yl)vinyl)-1H-indazol-5-yl)methyl)aniline] | 83 | 136 | 33.2 | 316 | 45.4 | 120 | –
Fc1cc(F)cc(Cc2ccc3[nH]nc(/C=C/c4ccncc4)c3c2)c1 [DYX-215, (E)-5-(3,5-difluorobenzyl)-3-(2-(pyridin-4-yl)vinyl)-1H-indazole] | 110 | 147 | 20.9 | 170 | 3.3 | 22.4 | –
Fc1ccc(F)c(CNc2ccc3[nH]nc(/C=C/c4ccccn4)c3c2)c1 [DYX-216A, (E)-N-(2,5-difluorobenzyl)-3-(2-(pyridin-2-yl)vinyl)-1H-indazol-5-amine] | 7.2 | 12.6 | 1.3 | 8.7 | 1.1 | 6.5 | –
C[C@@H](Nc1ccc2[nH]nc(/C=C/c3ccccn3)c2c1)c1cc(F)cc(F)c1 [DYX-244-1, (R,E)-N-(1-(3,5-difluorophenyl)ethyl)-3-(2-(pyridin-2-yl)vinyl)-1H-indazol-5-amine] | – | – | – | – | – | – | Area under the drug-time curve (0-t) ([1]; intravenous injection, 2 mg/kg): 3.68 µM·h; Area under the drug-time curve (0-∞) ([1]; intravenous injection, 2 mg/kg): 3.69 µM·h; Half-life ([1]; intravenous injection, 2 mg/kg): 83.4 min; Maximum blood concentration ([1]; intravenous injection, 2 mg/kg): 6.77 µM; Removal rate ([1]; intravenous injection, 2 mg/kg): 24 mL/min/kg; Time to Peak ([1]; intravenous injection, 2 mg/kg): 0.08 h; Bioavailability (%) ([1]; oral 10 mg/kg vs intravenous 2 mg/kg): 8.79%; Area under the drug-time curve (0-t) ([1]; oral administration, 10 mg/kg): 1.62 µM·h; Area under the drug-time curve (0-∞) ([1]; oral administration, 10 mg/kg): 1.64 µM·h; Half-life ([1]; oral administration, 10 mg/kg): 67.8 min; Maximum blood concentration ([1]; oral administration, 10 mg/kg): 0.36 µM; Time to Peak ([1]; oral administration, 10 mg/kg): 2.00 h; Residual percentage (%) 0 min [2]: 100.00%; Residual percentage (%) 5 min [2]: 71.83%; Residual percentage (%) 15 min [2]: 48.63%; Residual percentage (%) 30 min [2]: 14.84%; Residual percentage (%) 60 min [2]: 8.20%; Residual percentage (%) 120 min [2]: 5.40%; half-life at 1 μM [2]: 11.1 min; inhibitory activity against TRKs kinase (in words) (TRKs (TRK1, TRK2, TRK3)): strong inhibitory activity
C[C@@H](Nc1ccc2[nH]nc(/C=C/C(=O)N3CC[C@H](O)C3)c2c1)c1cc(F)cc(F)c1 [DYX-303, (E)-3-(5-(((R)-1-(3,5-difluorophenyl)ethyl)amino)-1H-indazol-3-yl)-1-((S)-3-hydroxylpyrrolidin-1-yl)prop-2-en-1-one] | 7.1 | 10.1 | 0.8 | 20 | 3 | 4.8 | –
Fc1cccc(CNc2ccc3[nH]nc(/C=C/c4ccccn4)c3c2)c1 [DYX-305, (E)-N-(3-fluorobenzyl)-3-(2-(pyridin-2-yl)vinyl)-1H-indazol-5-amine] | 22.9 | 28.2 | 1.3 | 51.3 | 1.8 | 9.5 | –
C[C@]12CC[C@H]3[C@@H](CCC4=CC(=O)CC[C@@]43C)[C@@H]1CC[C@@H]2O [Testosterone, reference compound] | – | – | – | – | – | – | Residual percentage (%) 0 min [2]: 100.00%; Residual percentage (%) 5 min [2]: 21.21%; Residual percentage (%) 15 min [2]: 5.78%; Residual percentage (%) 30 min [2]: BQL; Residual percentage (%) 60 min [2]: BQL; Residual percentage (%) 120 min [2]: BQL; half-life at 1 μM [2]: 2.23 min
